From ChEMBL document CHEMBL3430320, “Prediction of Thorough QT study results using action potential simulations based on ion channel screens” (J Pharmacol Toxicol Methods, 2014)

Tests used:
[1] = target: T1, Voltage-gated potassium channel, IKs; KCNQ1(Kv7.1)/KCNE1(MinK) (Homo sapiens, UniProt P51787+P15382); experiment: Inhibition of slow delayed inward rectifying potassium current (Iks) in Chinese Hamster Ovary (CHO) cells transfected with KCNQ1 / […] / KvLQT1 and KCNE1/minK measured using IonWorks automated patch clamp platform; assay type: functional, cell-based, Cricetulus griseus
T1 sequence (P51787 whole entry): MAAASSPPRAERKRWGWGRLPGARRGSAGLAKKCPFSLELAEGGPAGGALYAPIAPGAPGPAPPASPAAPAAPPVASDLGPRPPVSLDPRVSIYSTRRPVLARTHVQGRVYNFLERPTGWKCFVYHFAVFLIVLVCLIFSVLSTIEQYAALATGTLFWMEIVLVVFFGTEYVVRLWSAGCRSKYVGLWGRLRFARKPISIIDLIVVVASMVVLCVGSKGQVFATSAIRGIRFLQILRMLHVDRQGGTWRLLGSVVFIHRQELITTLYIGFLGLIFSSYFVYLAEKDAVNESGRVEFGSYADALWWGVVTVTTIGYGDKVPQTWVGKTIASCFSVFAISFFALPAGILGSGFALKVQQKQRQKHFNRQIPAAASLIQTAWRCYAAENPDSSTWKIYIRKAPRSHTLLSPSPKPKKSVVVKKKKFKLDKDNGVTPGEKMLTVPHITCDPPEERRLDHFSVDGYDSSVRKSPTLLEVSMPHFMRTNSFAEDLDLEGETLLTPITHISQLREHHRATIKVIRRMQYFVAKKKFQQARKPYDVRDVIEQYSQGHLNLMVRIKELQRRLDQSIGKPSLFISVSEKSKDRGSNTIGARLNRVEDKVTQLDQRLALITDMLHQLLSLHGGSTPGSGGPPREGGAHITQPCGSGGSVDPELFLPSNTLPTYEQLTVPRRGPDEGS

[2] = target: T2, Voltage-dependent L-type calcium channel subunit alpha-1C (Homo sapiens, UniProt Q13936); experiment: Inhibition of long-lasting type calcium current (ICaL) in HEK293 cells (alpha1C/beta2a/alpha2delta1) cells measured using IonWorks Barracuda automated patch clamp platform; assay type: functional, cell-based
T2 sequence (Q13936 whole entry): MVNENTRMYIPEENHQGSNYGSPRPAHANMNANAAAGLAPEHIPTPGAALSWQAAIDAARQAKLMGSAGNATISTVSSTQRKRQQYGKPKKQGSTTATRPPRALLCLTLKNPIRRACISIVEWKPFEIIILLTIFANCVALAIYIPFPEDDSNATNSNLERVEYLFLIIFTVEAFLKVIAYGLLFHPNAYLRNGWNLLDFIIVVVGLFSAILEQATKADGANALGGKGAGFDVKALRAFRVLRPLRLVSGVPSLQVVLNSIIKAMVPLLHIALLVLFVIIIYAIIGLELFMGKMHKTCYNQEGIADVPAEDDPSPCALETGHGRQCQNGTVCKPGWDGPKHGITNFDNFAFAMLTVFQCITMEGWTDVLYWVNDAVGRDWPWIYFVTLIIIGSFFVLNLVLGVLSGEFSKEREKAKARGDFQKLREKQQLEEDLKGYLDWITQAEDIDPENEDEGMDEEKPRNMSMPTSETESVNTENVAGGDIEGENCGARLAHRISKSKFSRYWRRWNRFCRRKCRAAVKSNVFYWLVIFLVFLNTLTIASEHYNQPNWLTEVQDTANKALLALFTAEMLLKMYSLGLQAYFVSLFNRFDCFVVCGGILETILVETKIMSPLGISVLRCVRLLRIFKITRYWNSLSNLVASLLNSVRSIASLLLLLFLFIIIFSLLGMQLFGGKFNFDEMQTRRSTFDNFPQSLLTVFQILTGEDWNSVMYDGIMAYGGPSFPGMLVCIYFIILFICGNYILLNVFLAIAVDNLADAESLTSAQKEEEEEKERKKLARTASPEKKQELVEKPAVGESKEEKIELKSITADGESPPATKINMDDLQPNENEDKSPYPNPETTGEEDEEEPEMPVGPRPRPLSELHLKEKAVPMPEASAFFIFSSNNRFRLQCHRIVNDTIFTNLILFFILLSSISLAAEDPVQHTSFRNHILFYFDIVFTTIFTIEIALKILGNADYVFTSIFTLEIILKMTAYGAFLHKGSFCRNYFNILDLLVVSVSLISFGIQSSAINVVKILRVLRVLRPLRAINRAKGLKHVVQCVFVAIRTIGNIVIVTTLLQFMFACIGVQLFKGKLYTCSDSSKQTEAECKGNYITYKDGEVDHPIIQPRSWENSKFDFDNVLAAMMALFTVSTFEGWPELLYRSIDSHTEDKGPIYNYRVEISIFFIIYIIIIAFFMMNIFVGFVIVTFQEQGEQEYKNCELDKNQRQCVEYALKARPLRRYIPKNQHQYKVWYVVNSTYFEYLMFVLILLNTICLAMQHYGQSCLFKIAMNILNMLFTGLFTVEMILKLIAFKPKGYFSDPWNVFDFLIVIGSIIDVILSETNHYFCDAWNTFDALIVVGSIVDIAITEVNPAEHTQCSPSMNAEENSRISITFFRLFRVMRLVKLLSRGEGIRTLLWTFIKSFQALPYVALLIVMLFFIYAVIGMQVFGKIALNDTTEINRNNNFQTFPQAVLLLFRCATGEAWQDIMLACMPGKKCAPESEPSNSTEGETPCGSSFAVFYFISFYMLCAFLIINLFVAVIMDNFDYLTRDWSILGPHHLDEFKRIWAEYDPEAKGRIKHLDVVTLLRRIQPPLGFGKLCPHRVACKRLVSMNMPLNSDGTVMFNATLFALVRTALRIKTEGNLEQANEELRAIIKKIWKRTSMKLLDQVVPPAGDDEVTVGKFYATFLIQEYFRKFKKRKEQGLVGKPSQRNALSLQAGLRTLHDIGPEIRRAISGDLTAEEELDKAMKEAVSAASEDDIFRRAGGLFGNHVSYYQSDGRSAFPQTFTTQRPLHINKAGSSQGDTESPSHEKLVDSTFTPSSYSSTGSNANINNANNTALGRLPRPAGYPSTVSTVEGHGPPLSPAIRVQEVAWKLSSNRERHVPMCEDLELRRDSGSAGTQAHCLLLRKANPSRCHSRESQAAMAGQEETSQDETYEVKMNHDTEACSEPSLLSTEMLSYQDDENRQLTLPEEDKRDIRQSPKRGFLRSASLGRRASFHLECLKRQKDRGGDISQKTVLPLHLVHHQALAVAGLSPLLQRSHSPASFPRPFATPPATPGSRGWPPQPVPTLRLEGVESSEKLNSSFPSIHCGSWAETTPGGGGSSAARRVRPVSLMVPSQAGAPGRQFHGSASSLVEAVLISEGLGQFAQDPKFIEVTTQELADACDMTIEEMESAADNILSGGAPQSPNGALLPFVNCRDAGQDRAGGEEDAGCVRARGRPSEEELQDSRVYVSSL

[3] = target: T1, Voltage-gated potassium channel, IKs; KCNQ1(Kv7.1)/KCNE1(MinK); experiment: (§1) Inhibition of slow delayed inward rectifying potassium current (Iks) in Chinese Hamster Ovary (CHO) cells expressing hKvLQT1/hminK measured using IonWorks Quattro automated patch clamp platform; assay type: functional, cell-based, Cricetulus griseus
[4] = target: T3, Voltage-gated inwardly rectifying potassium channel KCNH2 (Homo sapiens, UniProt Q12809); experiment: Inhibition of rapid delayed inward rectifying potassium current (IKr) in Chinese hamster ovary (CHO) K1 cells stably expressing hERG measured using IonWorks Quattro automated patch clamp platform; assay type: functional, cell-based, Cricetulus griseus
T3 sequence (Q12809 whole entry): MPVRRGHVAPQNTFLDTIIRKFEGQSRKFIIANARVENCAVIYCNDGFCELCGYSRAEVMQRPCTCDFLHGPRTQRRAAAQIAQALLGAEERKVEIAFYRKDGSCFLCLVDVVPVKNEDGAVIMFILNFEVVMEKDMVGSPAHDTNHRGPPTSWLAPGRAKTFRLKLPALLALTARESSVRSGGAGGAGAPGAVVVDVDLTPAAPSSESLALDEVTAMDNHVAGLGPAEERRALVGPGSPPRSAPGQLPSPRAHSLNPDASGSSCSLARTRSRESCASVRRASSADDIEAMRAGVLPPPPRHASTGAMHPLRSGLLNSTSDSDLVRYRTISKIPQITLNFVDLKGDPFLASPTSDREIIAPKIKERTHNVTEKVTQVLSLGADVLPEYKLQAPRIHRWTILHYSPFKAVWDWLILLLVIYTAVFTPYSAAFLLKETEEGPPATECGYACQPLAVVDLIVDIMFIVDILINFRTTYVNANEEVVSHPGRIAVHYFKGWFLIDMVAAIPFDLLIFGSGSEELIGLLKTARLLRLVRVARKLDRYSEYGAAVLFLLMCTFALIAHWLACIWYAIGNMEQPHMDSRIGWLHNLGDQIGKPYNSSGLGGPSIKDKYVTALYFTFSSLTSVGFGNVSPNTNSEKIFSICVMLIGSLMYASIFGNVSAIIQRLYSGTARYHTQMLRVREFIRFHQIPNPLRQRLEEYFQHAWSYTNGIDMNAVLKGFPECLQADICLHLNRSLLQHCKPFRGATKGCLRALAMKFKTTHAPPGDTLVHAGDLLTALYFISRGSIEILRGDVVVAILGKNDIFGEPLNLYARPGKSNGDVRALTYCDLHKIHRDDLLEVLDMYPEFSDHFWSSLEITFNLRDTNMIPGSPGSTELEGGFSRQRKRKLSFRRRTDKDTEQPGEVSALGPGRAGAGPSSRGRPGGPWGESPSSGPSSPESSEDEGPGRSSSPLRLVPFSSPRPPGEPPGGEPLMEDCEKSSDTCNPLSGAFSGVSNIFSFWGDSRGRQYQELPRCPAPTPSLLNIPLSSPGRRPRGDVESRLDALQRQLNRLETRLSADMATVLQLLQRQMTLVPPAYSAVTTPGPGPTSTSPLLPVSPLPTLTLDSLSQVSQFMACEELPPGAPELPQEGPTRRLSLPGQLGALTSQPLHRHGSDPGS

[5] = target: T3, Voltage-gated inwardly rectifying potassium channel KCNH2; experiment: Inhibition of rapid delayed inward rectifying potassium current (IKr) in Chinese hamster ovary (CHO) cells stable expressing hERG measured using IonWorks Barracuda automated patch clamp platform; assay type: functional, cell-based, Cricetulus griseus
[6] = target: T4, A-type voltage-gated potassium channel KCND3 (Homo sapiens, UniProt Q9UK17); experiment: Inhibition of transient outward potassium current (Ito) current in Chinese Hamster Ovary (CHO) K1 cells expressing human Kv4.3 measured using IonWorks Quattro automated patch clamp platform; assay type: functional, cell-based, Cricetulus griseus
T4 sequence (Q9UK17 whole entry): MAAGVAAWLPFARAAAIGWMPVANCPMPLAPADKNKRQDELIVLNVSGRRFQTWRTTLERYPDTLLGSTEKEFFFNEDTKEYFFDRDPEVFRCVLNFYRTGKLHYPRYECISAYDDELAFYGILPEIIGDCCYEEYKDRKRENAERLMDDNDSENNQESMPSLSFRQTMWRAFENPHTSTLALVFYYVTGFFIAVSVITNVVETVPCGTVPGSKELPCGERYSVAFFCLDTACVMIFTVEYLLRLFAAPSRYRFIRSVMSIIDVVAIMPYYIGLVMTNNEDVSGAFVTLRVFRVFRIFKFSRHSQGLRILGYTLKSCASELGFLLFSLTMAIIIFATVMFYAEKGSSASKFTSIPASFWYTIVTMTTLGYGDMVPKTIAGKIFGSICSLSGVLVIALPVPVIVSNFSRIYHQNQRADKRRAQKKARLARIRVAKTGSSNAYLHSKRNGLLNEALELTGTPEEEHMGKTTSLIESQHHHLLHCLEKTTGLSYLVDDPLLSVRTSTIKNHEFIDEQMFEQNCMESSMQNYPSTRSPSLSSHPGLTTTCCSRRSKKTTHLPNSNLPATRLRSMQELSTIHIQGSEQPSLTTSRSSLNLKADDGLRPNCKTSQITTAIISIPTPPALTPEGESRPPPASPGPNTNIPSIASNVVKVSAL

[7] = target: T2, Voltage-dependent L-type calcium channel subunit alpha-1C; experiment: Inhibition of long-lasting type calcium current (hICa) in Chinese Hamster Ovary (CHO) cells expressing hCav1.2 measured using IonWorks Quattro automated patch clamp platform; assay type: functional, cell-based, Cricetulus griseus
[8] = target: T3, Voltage-gated inwardly rectifying potassium channel KCNH2; experiment: Inhibition of rapid delayed inward rectifying potassium current (IKr) measured using manual patch clamp assay; assay type: functional
[9] = target: T3, Voltage-gated inwardly rectifying potassium channel KCNH2
[10] = target: Voltage-gated potassium channel, IKs; KCNQ1(Kv7.1)/KCNE1(MinK) (Homo sapiens, UniProt P15382+P51787); experiment: as §1; assay type: functional, cell-based, Cricetulus griseus
Voltage-gated potassium channel, IKs; KCNQ1(Kv7.1)/KCNE1(MinK) (Homo sapiens, UniProt P15382+P51787), sequence (P51787 whole entry): as the sequence (P51787 whole entry) above

[11] = target: Sodium channel protein type 5 subunit alpha (Homo sapiens, UniProt Q14524); experiment: Inhibition of fast sodium current (INa) in HEK293 cells transfected with human Nav1.5 measured using IonWorks Quattro automated patch clamp platform; assay type: functional, cell-based

Row | pIC50 [1] | pIC50 [2] | SMILES | pIC50 [7] | also measured
1 | Inactive | – | CCCc1nc(C)c2c(=O)[nH]c(-c3cc(S(=O)(=O)N4CCN(CC)CC4)ccc3OCC)nn12 | – | –
2 | Inactive | Inactive | O=C(O)c1ccc(-n2nc(-c3ccccc3O)nc2-c2ccccc2O)cc1 [DEFERASIROX] | – | pIC50 [3]: Inactive; pIC50 [4]: Inactive; pIC50 [5]: Inactive
3 | – | – | C[C@H]1CN(C[C@H](Cc2ccccc2)C(=O)NCC(=O)O)CC[C@@]1(C)c1cccc(O)c1 [ALVIMOPAN] | – | pIC50 [6]: Inactive
4 | Inactive | Inactive | Cc1c(O)cccc1C(=O)N[C@@H](CSc1ccccc1)[C@H](O)CN1C[C@H]2CCCC[C@H]2C[C@H]1C(=O)NC(C)(C)C | Inactive | –
5 | Inactive | – | Cc1cn(-c2cc(NC(=O)c3ccc(C)c(Nc4nccc(-c5cccnc5)n4)c3)cc(C(F)(F)F)c2)cn1 [NILOTINIB] | – | –
6 | – | – | O=C1c2cccc3c2[C@H](CCC3)CN1[C@@H]1CN2CCC1CC2 [PALONOSETRON] | – | pIC50 [6]: Inactive; IC50 [8]: 2 µM
7 | – | – | C[C@H](Cc1cc2c(c(C(N)=O)c1)N(CCCO)CC2)NCCOc1ccccc1OCC(F)(F)F [SILODOSIN] | – | IC50 [9]: 7.94 µM
8 | Inactive | – | Nc1nnc(-c2cccc(Cl)c2Cl)c(N)n1 [LAMOTRIGINE] | – | pIC50 [6]: Inactive
9 | Inactive | Inactive | COc1cc2nc(N(C)CCCNC(=O)C3CCCO3)nc(N)c2cc1OC (stereo unspecified) [ALFUZOSIN] | – | –
10 | Inactive | Inactive | CC1=NN(c2ccc(C)c(C)c2)C(=O)/C1=N\Nc1cccc(-c2cccc(C(=O)O)c2)c1O [ELTROMBOPAG] | Inactive | pIC50 [3]: Inactive; pIC50 [4]: Inactive
11 | – | – | Cc1cn([C@@H]2C[C@@H](O)[C@H](CO)O2)c(=O)[nH]c1=O [TELBIVUDINE] | Inactive | pIC50 [4]: 2.3; pIC50 [6]: Inactive
12 | Inactive | Inactive | N[C@@H](CC(=O)N1CCn2c(nnc2C(F)(F)F)C1)Cc1cc(F)c(F)cc1F [SITAGLIPTIN] | – | –
13 | – | – | OC(CNCC(O)C1CCc2cc(F)ccc2O1)C1CCc2cc(F)ccc2O1 (stereo unspecified) [NEBIVOLOL] | Inactive | IC50 [8]: 0.316 µM
14 | – | – | C[C@@H](O)[C@H]1C(=O)N2C(C(=O)O)=C(S[C@@H]3CN[C@H](CNS(N)(=O)=O)C3)[C@H](C)[C@H]12 [DORIPENEM] | – | pIC50 [6]: Inactive
15 | – | – | Cc1ccc(O)c([C@H](CCN(C(C)C)C(C)C)c2ccccc2)c1 [TOLTERODINE] | – | IC50 [10]: 79.4 µM
16 | Inactive | – | Cc1nc(Nc2ncc(C(=O)Nc3c(C)cccc3Cl)s2)cc(N2CCN(CCO)CC2)n1.O [DASATINIB] | – | –
17 | Inactive | Inactive | CO[C@H]1C[C@@H]2CC[C@@H](C)[C@@](O)(O2)C(=O)C(=O)N2CCCC[C@H]2C(=O)O[C@H]([C@H](C)C[C@@H]2CC[C@@H](OCCO)[C@H](OC)C2)CC(=O)[C@H](C)/C=C(\C)[C@@H](O)[C@@H](OC)C(=O)[C@H](C)C[C@H](C)/C=C/C=C/C=C/1C [EVEROLIMUS] | Inactive | –
18 | Inactive | – | CS(=O)(=O)CCNCc1ccc(-c2ccc3ncnc(Nc4ccc(OCc5cccc(F)c5)c(Cl)c4)c3c2)o1 [LAPATINIB] | – | pIC50 [6]: Inactive; pIC50 [11]: Inactive
19 | Inactive | Inactive | Cc1cc(C#N)cc(C)c1Oc1nc(Nc2ccc(C#N)cc2)nc(N)c1Br [ETRAVIRINE] | Inactive | –

Row | SMILES | pIC50 [1] | pIC50 [2] | pIC50 [7] | also measured
20 | COC(c1ccccc1)(c1ccccc1)[C@H](Oc1nc(C)cc(C)n1)C(=O)O [AMBRISENTAN] | – | Inactive | – | pIC50 [4]: 2.1; pIC50 [5]: Inactive
21 | CN(C)CC(c1ccc(O)cc1)C1(O)CCCCC1 (stereo unspecified) [DESVENLAFAXINE] | Inactive | Inactive | Inactive | pIC50 [3]: Inactive; pIC50 [4]: 1.7; pIC50 [5]: Inactive
